Test [1] addresses T1, PUP1 nuclear base transporter (Arabidopsis thaliana, UniProt Q9FZ96, S63G).
T1 construct: The PUP1 protein expressed by the yeast strain MG887ura3^−::pFL61-PUP1; expressed in transfected cells; host or cells: Saccharomyces cerevisiae MG887ura3- (fcy2), plasmid pFL61-PUP1
The class given is cell-based. To be noted: for Transport of cytokinin by PUP1: 3H-labelled cytokinins. How it is done: The uptake was set temporarily at a concentration of 100 μM trans-zeatin. In this case PUP1 was expressed under control of the yeast ATPase promoter PMA1 in the vector pDR195 (Rentsch et al., 1995, FEBS Left. 370, […]) in the mutant MG877ura3^−::(FCY). The empty vector (FCY2pDR195) served as control.
(§1) For measuring the rate of uptake the yeast strains MG887ura3^−::pFL61, MG887ura3^−::pFL61-PUP1 and their original strain Σ1278b (Dubois & Grenson, 1979, Mol. Gen. Genet. 175, 67–76) were cultured in complete medium (YPD) without uracil and with 2% glucose as carbon source up to an OD600 of 0.6 at 28° C. The cells were harvested at 3000 g, washed twice with water and brought to an OD600 of 12 with sodium phosphate buffer (100 mM, pH 4.5), 1% glucose. The cell suspension was stored in 100 μl portions on ice up to the beginning of the uptake measurements. Before the start of the uptake measurements the cells were pre-incubated at 30° C. for 2 minutes. The reaction was then started, by which 100 μl of radioactively labelled substrate solution was added to 100 μl cell suspension. The reaction mixture was incubated at 30° C. and after 30, 60, 120 and 180 seconds in each case 50 μl of suspension was withdrawn and placed in 4 ml of ice-cold water (in measurements over 180 seconds more cell suspension and substrate solution were correspondingly added). The cells were absorbed on to glass fibre filters and washed with 4 ml of ice-cold water. The radioactivity on the filters was finally ascertained in a liquid scintillation counter.
The uptake experiments were carried out with ^3H-labelled zeatine in MG887ura3^− as for adenine. To start the reaction 87.3Bq/μl of the radioactive substrate was added to a total concentration of 100 μM trans-zeatine.

For test [2], the target named is T1, PUP1 nuclear base transporter. As to the kind of experiment: Influence of inhibitors on PUP1-mediated adenine or cytosine uptake in yeast strain MG887ura3-::pFL61-PUP1. To be noted: for Relative adenine uptake / Relative cytosine uptake: added five minutes before measurement, without inhibitor = 100; for Effect on PUP1-mediated adenine or cytosine uptake: statement in words. Type of test: cell-based. As to the method: as §1
(§2) Substrate solution: For the substrate solution what is concerned is a 100 mM sodium phosphate buffer pH 4.5 with 1% glucose and 9.25 Bq/μl of radioactively labelled substrate (25–100 μM [^14C] adenine or [^14C] cytosine). In addition the substrate solution contains the unlabelled substrate, possible inhibitors and competitors in double end-concentration. For estimation of the optimum pH the pH value of the sodium phosphate buffer is also changed. When the influence of glucose on the uptake rate is measured neither the cell suspension nor the substrate solution contains glucose. Glucose is only added after starting the uptake measurements at the commencement of measuring at an end-concentration of 1%.
The influence of various inhibitors on the adenine or cytosine uptake mediated by the PUP1 nuclear base transporter in the yeast strain MG887ura3^−::pFL61-PUP1 is indicated in Table 2. The inhibitors were added to the cells five minutes before beginning the measurements. […] This may be taken as a clear indication of a secondarily active proton-associated uptake mechanism.

The target is the same in test [3]. As to the kind of experiment: Uptake of radioactively labelled adenine and cytosine by yeast strain MG887ura3-::pFL61-PUP1. Type of test: cell-based. As to the method:
as §1, §2
(§3) In Table 1 the uptake of radioactively labelled adenine and cytosine mediated by the PUP1 nuclear base transporter is indicated by the yeast strain MG887ura3^−::pFL61-PUP1. For calculation of the intracellular concentration the cell volume is estimated as four times the dry weight (Ninnemann et al., 1994, EMBO J. 15, 3464–3471). The uptake occurs against a concentration gradient.

Test [4] addresses T2, PUP1 nuclear base transporter (Arabidopsis thaliana, UniProt Q9FZ96).
T2 construct: The PUP1 protein expressed by the yeast strain MG887ura3^−::pFL61-PUP1; expressed in transfected cells; host or cells: Saccharomyces cerevisiae MG887ura3- (fcy2), plasmid pFL61-PUP1
The description is as above. As to conditions: initial concentration medium 200 μM; intracellular, cell volume estimated as four times the dry weight. The class given is cell-based. How it is done:
as §1, §2, §3

In test [5] the target is T3, PUP1 (Arabidopsis thaliana, UniProt Q9FZ96, S63G). As to the kind of experiment: Growth of yeast strain DM734-284D on adenosine minimal medium (adenosine transport complementation). Type of test: cell-based. More on the design: PUP1 was expressed under control of the yeast ATPase promoter PMA1 in the vector pDR195; expressed in transfected cells; host or cells: Saccharomyces cerevisiae MG887ura3- (A5, A8) or DM734-284D (A7), construct pDR195PUP1. As to conditions: minimal medium with 150 μM adenosine instead of adenine; after 3 days. From the text: The Saccharomyces cerevisiae strain DM734-284D (genotype: ade8-18, ade2-1, arg-4-16, leu2-17, trp1-1, lys2, ura3: Yeast Genetic Stock Center) was used for growth studies. This yeast strain owing to mutations at the gene loci ade 8-18 and ade 2-1 is not itself in a position to synthesize adenine. […] This adenine is taken up via the purine/cytosine transporter FCY2 of the yeast. The DM734-284D strain is however still in a position to grow in medium containing adenosine instead of adenine, provided adenosine transport in the yeast cells is mediated by an adenosine transporter inserted by genetic engineering.
In order to check whether PUP1 mediates the transport of adenosine, the strain DM734-284D was transformed according to the standard procedure for yeast transformation (Dohmen et al., 1991, Yeast 7,691–692) with the constructs pDR195PUP1 and pDR195 as controls (Rentsch et al., 1995, FEBS Lett. 370, […]). For final checking of the transformation the early stages of transformation were plated on minimal medium containing 150 μM adenine and the amino acids arginine, leucine, tryptophane (each 60 mg/l) and lysine (70 mg/l) necessary for growth. Uracil served as transformation marker. Three independent positive clones of the control and the PUP1-expressing clone were plated on minimal medium containing 150 μM adenosine instead of 150 μM adenine.

Test [6] concerns the target T3, PUP1. As to the kind of experiment: Sensitivity of yeast MG887ura3- clones to caffeine-containing minimal medium. More on the design: PUP1 was expressed under control of the yeast ATPase promoter PMA1 in the vector pDR195; expressed in transfected cells; host or cells: Saccharomyces cerevisiae MG887ura3- (A5, A8) or DM734-284D (A7), construct pDR195PUP1. To be noted: minimal medium plates, 6 days at 28° C. The class given is cell-based. As to the method:
In order to check whether PUP1 mediates the transport of caffeine, the sensitivity of the Saccharomyces cerevisiae strain MG887ura3^− to caffeine-containing minimal medium was investigated. At certain concentrations caffeine is toxic to yeast (Bard et al., J. Bacteriol. 141, 999–1002), leading to slower growth or death of the yeast.
For this test various caffeine concentrations between 0 and 1.5% were put into minimal medium. Yeast clones grown in liquid minimal medium for 16 hours were spread out on the corresponding plates and incubated for 6 days at 28° C.

Test [7] has as its target T1, PUP1 nuclear base transporter. As to the kind of experiment: cell-based. As to the method: as §1

A value given as a limit tells only on which side of the number the result lay.

We go through eleven compounds from patent publication US7179954B1, “Isolated nucleic acids coding for a nuclear base transporter and uses thereof” (Carnegie Insitution of Washington, priority 1999, dated 2007).

The term Ki denotes the equilibrium dissociation constant of an inhibitor or competing ligand from its target. Higher therefore signals a looser hold on the target.

T3 sequence (Q9FZ96 whole entry S63G): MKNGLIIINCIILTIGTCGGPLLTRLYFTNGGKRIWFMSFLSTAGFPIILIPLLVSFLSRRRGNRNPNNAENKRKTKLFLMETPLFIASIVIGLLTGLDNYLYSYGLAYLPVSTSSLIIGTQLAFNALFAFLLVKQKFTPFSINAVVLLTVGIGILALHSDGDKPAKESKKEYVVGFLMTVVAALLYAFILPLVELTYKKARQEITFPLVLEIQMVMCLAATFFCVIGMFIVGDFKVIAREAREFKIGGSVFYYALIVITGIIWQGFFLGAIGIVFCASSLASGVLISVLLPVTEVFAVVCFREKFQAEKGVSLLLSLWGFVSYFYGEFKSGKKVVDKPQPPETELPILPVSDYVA
T1 sequence (Q9FZ96 whole entry S63G): as above
T2 sequence (Q9FZ96 whole entry S63G): as above

With 2-isopentenyl adenine, the “Transport of cytokinin by PUP1” value in test [1] is reported as “can also transport cytokinins”.

For `O=[N+]([O-])c1ccc(O)c([N+](=O)[O-])c1` [2,4-DNP, 2,4-dinitrophenol], in test [2] (100 μM inhibitor), the Relative adenine uptake was determined as 54% and the Relative cytosine uptake worked out at 58%. For the same compound, in test [2], the “Effect on PUP1-mediated adenine or cytosine uptake” value (shortened to “Effect”) is reported as “block the uptake”.

In test [2] (100 μM inhibitor), `N#CC(C#N)=NNc1cccc(Cl)c1` [CCCP, carbonyl-cyanide-m-chlorphenylhydrazone] gave a Relative adenine uptake of 13% and a Relative cytosine uptake of 20%. For the same compound, in test [2], the “Effect” value was “block the uptake”.

Regarding `Nc1cc[nH]c(=O)n1` [Cytosine, cytosine], the Enrichment factor in test [3] (cells versus medium, initial concentration medium 200 μM) amounted to 18. Also, the “End conc. Medium” value in test [3] (initial concentration medium 200 μM, yeast strain MG887ura3-::pFL61-PUP1) turned out to be 145 µM. The “pH dependence of PUP1-mediated uptake” value in test [3] (yeast strain MG887ura3-::pFL61-PUP1, FIG. 2, substrate 100 μM) is “dependent on the pH level”. In addition, the “Glucose dependence of PUP1-mediated uptake” value in test [3] (yeast strain MG887ura3-::pFL61-PUP1, FIG. 3, glucose 1%) is recorded as “glucose-dependent”. Further, in test [4], the “End conc Cells” value is 2660 µM.

In test [2] (100 μM inhibitor), `C(=NC1CCCCC1)=NC1CCCCC1` [DCCD] registered a Relative adenine uptake of 47% and a Relative cytosine uptake of 55%.

Turning to `Nc1ncnc2c1ncn2[C@@H]1O[C@H](CO)[C@@H](O)[C@H]1O` [adenosine], on PUP1 [5], the “Growth of PUP1-expressing clone” value is “Definite growth” and the “Growth of clone transformed with the vector pDR195 (control)” value is “no growth”.

Turning to `Cn1c(=O)c2c(ncn2C)n(C)c1=O` [caffeine], the “Caffeine concentration from which PUP1-expressing yeasts displayed distinctly slowed-down growth compared to control and PUP2-expressing strain” value on PUP1 [6] is recorded as not below 0.2%.

For `C[C@@H]1C[C@@H]([C@H](O)CC2CC(=O)NC(=O)C2)C(=O)[C@@H](C)C1` [cycloheximide], in test [2] (10 μg/ml inhibitor), the Relative adenine uptake amounted to 95% and the Relative cytosine uptake came to 97%.

In test [2] (100 μM inhibitor), `CC/C(=C(/CC)c1ccc(O)cc1)c1ccc(O)cc1` [diethylstilboestrol] displayed a Relative adenine uptake of 4% and a Relative cytosine uptake of 8%. Also, the “Effect” value in test [2] is “block the uptake”.

In turn, `c1coc(CNc2ncnc3[nH]cnc23)c1` [kinetin] registered a Ki in test [7] of 35 µM.

In the case of `C/C(=C\CNc1ncnc2[nH]cnc12)CO` [zeatin], the affinity in test [7] corresponds to a Ki of 30 µM. Also, in test [1] (100 μM trans-zeatine, three independent experiments), the “Increased uptake of radioactively labelled trans-zeatine, PUP1-expressing clone versus control strain (pDR195)” value is 70 times. Besides, in test [1], the “Transport of cytokinin by PUP1” value is “can also transport cytokinins”.
